From the supplement of paper PMC11061612

Key:
EW-3 (Ewing's Sarcoma) [1] = experiment: Bliss excess, mean over the matrix (fraction); higher = more synergy
Summary of the method: (§1)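 Cell lines grown in DMEM/F12 or RPMI with 10% FBS were plated in 1536-well plates and held 24 hours at 37°C, 5% CO2 before 72 hours of exposure to two-drug dose matrices, with DMSO typically at 0.2%. CellTiter-Glo 2.0 luminescence gave viability, which was converted to inhibition. Vehicle wells were set to 0 and blank wells to 1. Combination Emax is the second-highest inhibition in the matrix, and Bliss excess is the observed combination effect minus the expected EA + EB − EA·EB, where EA and EB are the single-agent effects.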

GI-1 (Glioblastoma) [2] = experiment: as above
Summary of the method: as §1

[3] = test system: H-EMC-SS (Chondrosarcoma); experiment: as above
Summary of the method: as §1

[4] = test system: HSC-2 (Oral Cavity Carcinoma); experiment: as above
Summary of the method: as §1

[5] = test system: JHH-7 (Hepatocellular Carcinoma); experiment: as above
Summary of the method: as §1

[6] = test system: KINGS-1 (Low Grade Glioma); experiment: as above
Summary of the method: as §1

[7] = test system: LC4-1 (B-Lymphoblastic Leukemia); experiment: as above
Summary of the method: as §1

NB7 (Neuroblastoma) [8] = experiment: as above
Summary of the method: as §1

[9] = test system: NCI-N87 (Gastric Carcinoma); experiment: as above
Summary of the method: as §1

[10] = test system: OCUB-M (Breast Carcinoma); experiment: as above
Summary of the method: as §1

[11] = test system: OCUM-1 (Gastric Carcinoma); experiment: as above
Summary of the method: as §1

[12] = test system: SCC-9 (Oral Cavity Carcinoma); experiment: as above
Summary of the method: as §1

[13] = test system: SNU-C1 (Colorectal Carcinoma); experiment: as above
Summary of the method: as §1

[14] = test system: TGBC11TKB (Gastric Carcinoma); experiment: as above
Summary of the method: as §1

[15] = test system: VMRC-LCD (Lung Adenocarcinoma); experiment: as above
Summary of the method: as §1

EW-3 (Ewing's Sarcoma) [16] = experiment: combination Emax (second highest fraction inhibited in the dose matrix, 72 h); higher = more inhibition; extreme values may be limits of the assay
Summary of the method: as §1

GI-1 (Glioblastoma) [17] = experiment: as above
Summary of the method: as §1

[18] = test system: H-EMC-SS (Chondrosarcoma); experiment: as above
Summary of the method: as §1

[19] = test system: HSC-2 (Oral Cavity Carcinoma); experiment: as above
Summary of the method: as §1

[20] = test system: JHH-7 (Hepatocellular Carcinoma); experiment: as above
Summary of the method: as §1

[21] = test system: KINGS-1 (Low Grade Glioma); experiment: as above
Summary of the method: as §1

[22] = test system: LC4-1 (B-Lymphoblastic Leukemia); experiment: as above
Summary of the method: as §1

NB7 (Neuroblastoma) [23] = experiment: as above
Summary of the method: as §1

[24] = test system: NCI-N87 (Gastric Carcinoma); experiment: as above
Summary of the method: as §1

[25] = test system: OCUB-M (Breast Carcinoma); experiment: as above
Summary of the method: as §1

[26] = test system: OCUM-1 (Gastric Carcinoma); experiment: as above
Summary of the method: as §1

[27] = test system: SCC-9 (Oral Cavity Carcinoma); experiment: as above
Summary of the method: as §1

[28] = test system: SNU-C1 (Colorectal Carcinoma); experiment: as above
Summary of the method: as §1

[29] = test system: TGBC11TKB (Gastric Carcinoma); experiment: as above
Summary of the method: as §1

[30] = test system: VMRC-LCD (Lung Adenocarcinoma); experiment: as above
Summary of the method: as §1
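Wherever Bliss excess, mean over the matrix is given: after 72 h of two-drug dosing.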

| SMILES | Bliss excess (EW-3 (Ewing's Sarcoma) [1]) | Bliss excess (GI-1 (Glioblastoma) [2]) | Bliss excess [3] | Bliss excess [4] | Bliss excess [5] | Bliss excess [6] | Bliss excess [7] | Bliss excess (NB7 (Neuroblastoma) [8]) | Bliss excess [9] | Bliss excess [10] | Bliss excess [11] | Bliss excess [12] | Bliss excess [13] | Bliss excess [14] | Bliss excess [15] | combination Emax (EW-3 (Ewing's Sarcoma) [16]) | combination Emax (GI-1 (Glioblastoma) [17]) | combination Emax [18] | combination Emax [19] | combination Emax [20] | combination Emax [21] | combination Emax [22] | combination Emax (NB7 (Neuroblastoma) [23]) | combination Emax [24] | combination Emax [25] | combination Emax [26] | combination Emax [27] | combination Emax [28] | combination Emax [29] | combination Emax [30] |
| --- | --- | --- | --- | --- | --- | --- | --- | --- | --- | --- | --- | --- | --- | --- | --- | --- | --- | --- | --- | --- | --- | --- | --- | --- | --- | --- | --- | --- | --- | --- |
| N#Cc1cnc(Nc2cc(NC[C@H]3CNCCO3)c(C(F)(F)F)cn2)cn1 [SRA737] + Nc1ccn([C@@H]2O[C@H](CO)[C@@H](O)C2(F)F)c(=O)n1 [Gemcitabine] (first compound max 10 µM, 7x7, partner max 0.3 µM) | -0.0521 | 0.0455 | -0.0056 | 0.059 | 0.0691 | -0.0208 | 0.113 | 0.0519 | -0.0415 | 0.0085 | -0.022 | 0.0211 | -0.0175 | 0.0075 | 0.0934 | 0.902 | 0.916 | 0.542 | 0.959 | 0.569 | 0.29 | 0.976 | 0.765 | 0.702 | 0.951 | 0.709 | 0.401 | 0.712 | 0.942 | 0.773 |
| O=C(c1cc(Cc2n[nH]c(=O)c3ccccc23)ccc1F)N1CCN(C(=O)C2CC2)CC1 [Olaparib] + Cc1c2c(nn1C)CSCc1cc(n(C)n1)CSc1cc(c3ccccc3c1)OCCCc1c(C(=O)O)n(C)c3c-2c(Cl)ccc13 [AZD5991] (first compound max 10 µM, 7x7, partner max 1 µM) | -0.0215 | 0.0065 | -0.0401 | -0.0082 | -0.0457 | -0.0514 | -0.0181 | -0.0154 | -0.0285 | -0.0142 | -0.0497 | -0.0478 | -0.0155 | 0.0015 | -0.0349 | 0.869 | 0.51 | 0.129 | 0.88 | 0.0758 | 0.0927 | 0.955 | 0.595 | 0.203 | 0.924 | 0.0756 | 0.154 | 0.362 | 0.509 | 0.111 |
| C[C@@H](Nc1cc(F)cc(F)c1)c1cc(C(=O)N(C)C)cc2c(=O)cc(N3CCOCC3)oc12 [AZD8186] + CC(=O)c1c(C)c2cnc(Nc3ccc(N4CCNCC4)cn3)nc2n(C2CCCC2)c1=O [Palbociclib] (first compound max 10 µM, 7x7, partner max 10 µM) | 0.0752 | 0.0438 | -0.0127 | 0.0014 | -0.0086 | 0.0318 | 0.202 | 0.211 | 0.0255 | -0.0466 | 0.0111 | 0.0322 | 0.0065 | 0.0002 | 0.006 | 0.392 | 0.454 | 0.474 | 0.533 | 0.216 | 0.398 | 0.641 | 0.932 | 0.656 | 0.252 | 0.36 | 0.382 | 0.37 | 0.178 | 0.165 |
| CS(=O)(=O)CCNCc1ccc(-c2ccc3ncnc(Nc4ccc(OCc5cccc(F)c5)c(Cl)c4)c3c2)o1 [Lapatinib] + Cn1cnc2c(F)c(Nc3ccc(Br)cc3Cl)c(C(=O)NOCCO)cc21 [Selumetinib] (first compound max 10 µM, 7x7, partner max 10 µM) | -0.0017 | 0.0054 | -0.0086 | -0.0044 | -0.0408 | -0.0191 | 0.0675 | -0.0408 | 0.0451 | -0.0507 | -0.0148 | 0.0063 | -0.0196 | 0.106 | -0.0369 | 0.405 | 0.368 | 0.317 | 0.782 | 0.344 | 0.337 | 0.954 | 0.119 | 0.991 | 0.551 | 0.95 | 0.988 | 0.785 | 0.527 | 0.207 |
| C=CCn1c(=O)c2cnc(Nc3ccc(N4CCN(C)CC4)cc3)nc2n1-c1cccc(C(C)(C)O)n1 [AZD1775] + CCc1c2c(nc3ccc(O)cc13)-c1cc3c(c(=O)n1C2)COC(=O)[C@]3(O)CC [SN-38] (first compound max 1 µM, partner max 0.3 µM) | -0.135 | -0.0412 | -0.0137 | -0.0298 | 0.0117 | -0.0275 | -0.0519 | 0.0564 | -0.0855 | 0.0926 | -0.0758 | -0.0365 | -0.0837 | -0.0338 | -0.126 | 0.872 | 0.988 | 0.561 | 0.952 | 0.43 | 0.495 | 0.934 | 0.97 | 0.8 | 0.931 | 0.65 | 0.557 | 0.646 | 0.914 | 0.591 |
| C[C@@H](Nc1cc(F)cc(F)c1)c1cc(C(=O)N(C)C)cc2c(=O)cc(N3CCOCC3)oc12 [AZD8186] + C1CN(CCC1(C(=O)N[C@@H](CCO)C2=CC=C(C=C2)Cl)N)C3=NC=NC4=C3C=CN4 [AZD5363] (first compound max 10 µM, 7x7, partner max 10 µM) | 0.0017 | 0.0399 | -0.0314 | -0.0041 | -0.0665 | -0.0307 | 0.027 | -0.0059 | 0.0125 | 0.019 | -0.0101 | -0.0225 | -0.0605 | -0.0235 | -0.025 | 0.239 | 0.751 | 0.448 | 0.667 | 0.25 | 0.422 | 0.398 | 0.864 | 0.629 | 1 | 0.513 | 0.351 | 0.586 | 0.126 | 0.0947 |
| N#Cc1cnc(Nc2cc(NC[C@H]3CNCCO3)c(C(F)(F)F)cn2)cn1 [SRA737] + CCc1c2c(nc3ccc(O)cc13)-c1cc3c(c(=O)n1C2)COC(=O)[C@]3(O)CC [SN-38] (first compound max 10 µM, 7x7, partner max 0.3 µM) | -0.0562 | 0.0169 | -0.0264 | -0.0648 | 0.0753 | -0.0051 | -0.129 | 0.0757 | -0.0812 | 0.231 | -0.11 | 0.0297 | 0.0746 | 0.0031 | 0.102 | 0.865 | 0.973 | 0.544 | 0.96 | 0.616 | 0.362 | 0.941 | 0.952 | 0.732 | 0.935 | 0.695 | 0.518 | 0.748 |  | 0.812 |
| CN(CCO)CC[C@H](CSc1ccccc1)Nc1ccc(S(=O)(=O)NC(=O)c2ccc(N3CCC([C@@H](O)c4ccccc4-c4ccc(Cl)cc4)CC3)cc2)cc1S(=O)(=O)C(F)(F)F [AZD4320] + CS(=O)(=O)CCNCc1ccc(-c2ccc3ncnc(Nc4ccc(OCc5cccc(F)c5)c(Cl)c4)c3c2)o1 [Lapatinib] (first compound max 1 µM, 7x7, partner max 10 µM) | 0.0104 | 0.0992 | 0.0321 | 0.114 | -0.0153 | 0.0401 | 0.0427 | 0.0034 | 0.0453 |  | 0.0032 | 0.0105 | 0.0215 | 0.0791 | 0.0981 | 0.984 | 0.962 | 0.439 | 1 | 0.971 | 0.962 | 1 | 0.189 | 0.982 | 0.887 | 1 | 0.99 | 0.666 | 0.674 | 0.923 |
| Cc1c2c(nn1C)CSCc1cc(n(C)n1)CSc1cc(c3ccccc3c1)OCCCc1c(C(=O)O)n(C)c3c-2c(Cl)ccc13 [AZD5991] + CC(=O)O[C@H]1C(=O)[C@@]2(C)[C@H]([C@H](OC(=O)c3ccccc3)[C@]3(O)C[C@H](OC(=O)[C@H](O)[C@@H](NC(=O)c4ccccc4)c4ccccc4)C(C)=C1C3(C)C)[C@]1(OC(C)=O)CO[C@@H]1C[C@@H]2O [Paclitaxel] (first compound max 1 µM, 7x7, partner max 3 µM) | -0.0365 | -0.0373 | 0.0049 | -0.0534 | -0.0494 | 0.0134 | -0.0585 | 0.0901 | -0.0041 | 0.0387 | 0.027 |  | -0.024 | -0.0368 |  | 0.917 | 0.989 | 0.285 | 1 | 0.603 | 0.407 | 0.988 | 0.979 | 0.555 | 1 | 0.321 | 0.614 | 0.545 | 0.957 | 0.864 |
| N#Cc1cnc(Nc2cc(NC[C@H]3CNCCO3)c(C(F)(F)F)cn2)cn1 [SRA737] + O=c1[nH]cc(F)c(=O)[nH]1 [5-Fluorouracil] (first compound max 10 µM, 7x7, partner max 20 µM) | -0.0165 | -0.0397 | -0.0371 | -0.0197 |  | -0.029 | -0.0214 | -0.0058 | 0.0586 | 0.0349 | -0.0345 | 0.053 | 0.0964 | 0.0518 | -0.0371 | 0.663 | 0.683 | 0.198 | 0.382 | 0.392 | 0.122 | 0.847 | 0.431 | 0.628 | 0.302 | 0.416 | 0.319 | 0.803 | 0.869 | 0.668 |
